A short description of data set [1]: Tolerability of CBD and THCV daily doses. Format: in vivo.
Data set [2] deals with CB2 (Homo sapiens, UniProt P34972). To be noted: cited from earlier work.
The conditions of data set [3]: in vivo; cited from earlier work.
The target of data set [4] is CB1 (Homo sapiens, UniProt P21554). The settings on record: cited from earlier work.

SMILES strings stand for the structures.

Sequence of CB1 (P21554 whole entry, species assumed): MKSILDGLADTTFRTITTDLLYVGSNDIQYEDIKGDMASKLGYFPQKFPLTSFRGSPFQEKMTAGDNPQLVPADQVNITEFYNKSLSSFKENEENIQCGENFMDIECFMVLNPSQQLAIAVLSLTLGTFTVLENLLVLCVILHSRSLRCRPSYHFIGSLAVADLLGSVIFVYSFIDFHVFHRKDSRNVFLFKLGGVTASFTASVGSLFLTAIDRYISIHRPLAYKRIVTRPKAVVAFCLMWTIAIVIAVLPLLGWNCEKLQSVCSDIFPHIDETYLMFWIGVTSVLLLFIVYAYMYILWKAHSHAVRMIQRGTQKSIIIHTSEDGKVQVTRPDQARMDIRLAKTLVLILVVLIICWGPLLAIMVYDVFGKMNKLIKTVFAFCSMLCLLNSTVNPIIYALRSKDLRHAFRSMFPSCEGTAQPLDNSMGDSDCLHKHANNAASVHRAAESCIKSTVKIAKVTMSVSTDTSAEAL
Sequence of CB2 (P34972 whole entry, species assumed): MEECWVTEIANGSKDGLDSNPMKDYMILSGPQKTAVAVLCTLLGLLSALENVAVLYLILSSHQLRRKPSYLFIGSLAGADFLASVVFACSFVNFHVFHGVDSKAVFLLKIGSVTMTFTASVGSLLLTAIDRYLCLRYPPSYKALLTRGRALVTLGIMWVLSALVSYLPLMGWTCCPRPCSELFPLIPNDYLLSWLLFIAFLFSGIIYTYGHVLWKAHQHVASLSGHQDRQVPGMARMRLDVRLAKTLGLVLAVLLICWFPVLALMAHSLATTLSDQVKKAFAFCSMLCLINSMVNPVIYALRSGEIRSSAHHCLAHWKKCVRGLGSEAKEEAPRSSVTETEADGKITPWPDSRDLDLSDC

For the molecule `C=C(C)[C@@H]1CCC(C)=C[C@H]1c1c(O)cc(CCCCC)cc1O` [CBD, 2-[(1R,6R)-6-isopropenyl-3-methylcyclohex-2-en-1-yl]-5-pentylbenzene-1,3-diol], in data set [1] (200 mg CBD per day), the tolerability entry is given as “well tolerated”.

On to `CCCn1c(C)c(C(=O)c2ccc(C)c3ccccc23)c2ccccc21` [JWH-148], for which the “selectivity for CB2 over the CB1 subtype” value in data set [2] is recorded as “more than 8 times”.

`CCCCCCC(C)(C)c1cc(O)c2c(c1)OC(C)(C)[C@@H]1CCC(=O)C[C@@H]21` (racemic) [Cesamet, (±)-trans-3-(1,1-dimethylheptyl)-6,6a,7,8,10,10a-hexahydro-lhydroxy-6-6-dimethyl-9H-dibenzo[b,d]pyran-9-one]: the reducing spasticity entry in data set [3] is listed as “positive results”.

On to `CCCCCCC(C)(C)c1cc(O)c2c(c1)oc(=O)c1ccc(OC)cc12` [AM-1710], for which the “selectivity for CB2 over CB1” value in data set [2] is reported as 54 ×.

In the case of `CCCCCn1cc(C(=O)c2ccc(Cl)c3ccccc23)c2ccccc21` [JWH-398], the Ki in data set [2] was 2.8 nM; in data set [4], 2.3 nM.

As for `CCCCCCC(C)(C)c1cc(OC)c2c(c1)OC(C)(C)C1CCC(O)CC21` (stereo not drawn) [JWH-350, 11-nor-1-methoxy-3-(1′,1′-dimethylheptyl)-9α-hydroxyhexahydrocannabinol], the “selectivity for CB2” value in data set [2] is 33 fold.

Regarding `CCCCCc1cc(O)c2c(c1)OC(C)(C)[C@@H]1CCC(C)=C[C@@H]21` [Marinol], the reducing spasticity entry in data set [3] is on record as “positive results”.

As for `CCCCCn1cc(C(=O)c2cccc3cccc(Br)c23)c2ccccc21` [JWH-424], the Ki in data set [2] was 5.44 nM; in data set [4], 20.9 nM.

Consider `CCCc1cc(O)c2c(c1)OC(C)(C)[C@@H]1CCC(C)=C[C@@H]21` [THCV, tetrahydrocannbivarin], for which the tolerability entry in data set [1] (10 mg THCV per day) is “well tolerated”.

As for `CCCn1cc(C(=O)c2ccc(C)c3ccccc23)c2ccccc21` [JWH-120], the “selectivity for CB2” value in data set [2] is recorded as 173 fold.

As to `CCCCC/C=C\C/C=C\C/C=C\C/C=C\CCCC(=O)N[C@H](C)CO` [Methanandamide], the Ki in data set [4] was 17.9 nM.

Broadly, the Ki is the dissociation constant of the complex between target and ligand, obtained from inhibition or displacement.

(Values after US20220047525A1, “TRANSDERMAL PHARMACEUTICAL FORMULATIONS OF NABILONE ALONE AND IN COMBINATION WITH CANNABINOIDS” (Pike Therapeutics, Inc., priority 2020, published 2022).)
